Data as given in patent publication US12714675B2, “Solid dosage form production” (UNIVERSITY OF LANCASHIRE, priority 2016, dated 2026).

Assay: optimization of highly concentrated dipyridamole solution for liquid capsule feed (solubility in solvent systems)
Format: physicochemical
Conditions: drug solution in PEG 400
Protocol: A model drug, dipyridamole, was chosen to test the suitability of this system to provide immediate and extended drug release. Its fluoresce colour and ease of detection allows focusing on the development process. It was decided that the drug solution PEG 400 (10 mg/ml) is the maximum concentration that can be readily prepared.

OCCN(CCO)c1nc(N2CCCCC2)c2nc(N(CCO)CCO)nc(N3CCCCC3)c2n1 [dipyridamole]
maximum concentration that can be readily prepared: 10 mg/mL
